In US4038033A, “Selenium labelled compounds in the saturation analysis of cyclic nucleotide” (The Radiochemical Centre, Limited, priority 1975, dated 1977):

Legend:
[1] = system: natural binding protein extracted from bovine muscle; experiment: Saturation analysis of cyclic AMP: binding of 75Se-labelled cyclic AMP derivative to binding protein and displacement by cyclic AMP; settings: for Percentage of 75Se-labelled cyclic AMP bound: 3 picomoles ligand, pH 7.5, 2°-4° C., 3 hours; for binding to natural binding protein extracted from bovine muscle / displacement with 3',5'-cyclic AMP from natural binding protein: qualitative
Method: Standard solutions of cyclic AMP containing 1, 2, 4, 8 and 16 picomoles in 50mmol tris/4mmol EDTA buffer, pH 7.5 (50μl) were pipetted into assay tubes maintained at 2°-4° C. Buffer was also added to `total` `blank` and `zero dose` tubes (150, 150 and 50μl respectively),also at 2-4' C. To each tube was added 8-methylseleno-cyclic AMP-^75 Se (3 picomoles; specific activity ca 22Ci/mmol) in 50μl of buffer.
Binding protein (ex bovine muscle) in 100μl of buffer was then added to all tubes except the `blanks`. The tubes were vortex mixed for approximately 5 seconds and then incubated at 2°-4° C. for 3 hours. A suspension of charcoal in water (100μl) was added to all tubes except the `totals` and after vortex mixing for approximately 5 seconds the tubes were immediately centrifuged to sediment the charcoal. A 200μl sample was removed from the supernate of each tube and from the `totals` and counted in a gamma counter.
(§1) Results are expressed in terms of […]

[2] = system: Antiserum (raised against cyclic GMP-2'-succinyl-BSA); experiment: Saturation analysis of cyclic GMP: binding of 8-methylseleno-cyclic GMP-75Se to antiserum and displacement by cyclic GMP; settings: for Percentage of 75Se-labelled cyclic GMP bound: 0.25 picomoles ligand, pH 7.5, 2°-4° C., 3 hours
Method: Standard solutions of cyclic GMP containing 0.25, 0.5, 1.0, 2, 4, 8 and 16,000 picomoles in 100μl of 50mmol tris/4mmol EDTA buffer, pH 7.5, were pipetted into assay tubes maintained at 2°-4° C.; the concentration of 16,000 picomoles/100μl was for determination of `non-specific binding`. 100μl of buffer was also added to a tube for determination of `zero dose` counts. To each tube was added 8-methylseleno-cyclic GMP-^75 Se (0.25 picomoles, specific activity ca 24Ci/mmol) in 50μl of buffer. Antiserum (raised against cyclic GMP-2'-succinyl-BSA) in 50μl of buffer was then added to all tubes. The tubes were briefly vortex mixed and incubated at 2°-4° C. for 3 hours. 1ml of aqueous ammonium sulphate solution (60% saturated) at 2°-4° C. was added to all tubes which, after mixing, were kept at 2°-4° C. for 5 minutes and then centrifuged. After decantation of the supernate and removal of adhering liquid the precipitates were counted in a gamma counter. 0.25 picomoles of 8-methylseleno-cyclic GMP-^75 Se (specific activity ca 24Ci/mmol) in 50μl of buffer was also counted to give `total` counts.
as §1

[3] = system: antibodies raised against these cyclic nucleotides (3',5'-cyclic AMP and 3',5'-cyclic GMP); experiment: Binding of selenocysteine conjugates to antibodies raised against the cyclic nucleotides; settings: qualitative
binding protein = experiment: Competitive inhibition of the binding of tritiated cyclic AMP to the binding protein; parameters: species or system bovine; settings: for % 3H-cyclic AMP bound: tritiated cyclic AMP 0.9pmol, zero-dose binding 54.5; for Cyclic AMP equivalent: unlabelled cyclic AMP giving equal reduction in binding
Method: Because of the low activity of the 6-methylselenopurine riboside 3',5'-cyclic monophosphate-^75 Se its binding properties were investigated by using the selenium-75 compound as a competitive inhibitor of the binding of tritiated cyclic AMP to the binding protein.
6-methylselenopurine riboside 3',5'-cyclic monophosphate-^75 Se (specific activity 6.65m Ci/mmol) was made up in tris/EDTA buffer at concentrations of 1,156 pmoles, 105pmoles and 9.6pmoles per 50μl aliquot. In the normal assay 100μl of binding protein is incubated with tritiated cyclic AMP (0.9pmol) and unlabelled cyclic AMP (standards and unknowns). Bound and free labelled cyclic AMP are separated by absorption of free cyclic AMP on charcoal and bound activity is determined by counting a sample of the supernate. To determine the potency of the selenium analogue the zero-dose binding was first determined, ie. the percentage of tritiated cylic AMP bound in the absence of unlabelled cyclic AMP or selenium analogue. This was then compared with the binding of tritiated cylic AMP in the presence of 4 different doses of selenium analogue. From the results obtained it was possible to calculate the amounts of unlabelled cyclic AMP which would give a reduction in binding equal to that caused by the selenium analogue.

[4] = system: Antiserum (raised against cyclic GMP-2'-succinyl-BSA); experiment: Saturation analysis of cyclic GMP: binding of Se-methyl-L-selenocysteine-75Se conjugate of 2'-O-succinyl cyclic GMP to antiserum and displacement by cyclic GMP; settings: 0.59 picomoles ligand, pH 7.5, 2°-4° C., 3 hours
Method: Standard solutions of cyclic GMP containing 5, 10, 20, 40, 80 and 16,000 picomoles in 100μl of 50mmol tris/4mmol EDTA buffer, pH 7.5 were pipetted into assay tubes maintained at 2°-4° C.; the concentration of 16,000 picomoles/100μl was for determination of `non-specific binding`. 100μl of buffer was also added to a tube for determination of `zero dose` counts. To each tube was added Se-methyl-L-selenocysteine-^75 Se conjugate of 2' -O-succinyl cyclic GMP (0.59 picomoles; specific activity ca 16.1Ci/mmol) in 50μl of buffer. Antiserum (raised against cyclic GMP-2'-succinyl-BSA) in 50μl of buffer was then added to all tubes. The tubes were briefly vortex mixed and incubated at 2°-4° C. for 3 hours. 1ml of aqueous ammonium sulphate solution (60% saturated) at 2°-4° C. was added to all tubes which, after mixing, were kept at 2°-4° C. for 5 minutes and then centrifuged.
After decantation of the supernate and removal of adhering liquid the precipitates were counted in a gamma counter. 0.59 picomoles of the Se-methyl-L-selenocysteine-^75 Se conjugate of 2' -O-succinyl cyclic GMP in 50μl of buffer was also counted to give `total` counts.
as §1

C[75Se]c1nc2c(N)ncnc2n1[C@@H]1O[C@@H]2COP(=O)(O)O[C@H]2[C@H]1O [I, 8-methylselenoadenosine 3', 5'-cyclic monophosphate-^75 Se]
Percentage of 75Se-labelled cyclic AMP bound ([1]; dose of cyclic AMP 0 picomoles): 38.8% | Percentage of 75Se-labelled cyclic AMP bound ([1]; dose of cyclic AMP 1 picomole): 29.7% | Percentage of 75Se-labelled cyclic AMP bound ([1]; dose of cyclic AMP 2 picomoles): 26.7% | Percentage of 75Se-labelled cyclic AMP bound ([1]; dose of cyclic AMP 4 picomoles): 21.4% | Percentage of 75Se-labelled cyclic AMP bound ([1]; dose of cyclic AMP 8 picomoles): 16.6% | Percentage of 75Se-labelled cyclic AMP bound ([1]; dose of cyclic AMP 16 picomoles): 10.6% | binding to natural binding protein extracted from bovine muscle [1]: shown to bind | displacement with 3',5'-cyclic AMP from natural binding protein [1]: capable of displacement

C[75Se]c1nc2c(=O)[nH]c(N)nc2n1[C@@H]1O[C@@H]2COP(=O)(O)O[C@H]2[C@H]1O [II, 8-methylselenoguanosine 3',5'-cyclic monophosphate-^75 Se]
Percentage of 75Se-labelled cyclic GMP bound ([2]; dose of cyclic GMP 0 picomoles): 45.3% | Percentage of 75Se-labelled cyclic GMP bound ([2]; dose of cyclic GMP 0.25 picomoles): 33.7% | Percentage of 75Se-labelled cyclic GMP bound ([2]; dose of cyclic GMP 0.5 picomoles): 27.8% | Percentage of 75Se-labelled cyclic GMP bound ([2]; dose of cyclic GMP 1.0 picomoles): 22.3% | Percentage of 75Se-labelled cyclic GMP bound ([2]; dose of cyclic GMP 2.0 picomoles): 14.0% | Percentage of 75Se-labelled cyclic GMP bound ([2]; dose of cyclic GMP 4.0 picomoles): 9.3% | Percentage of 75Se-labelled cyclic GMP bound ([2]; dose of cyclic GMP 8.0 picomoles): 6.5% | binding to an antibody raised against cyclic GMP-2'-O-succinyl-BSA ([2]; qualitative): shown to bind

C[75Se]C[C@H](NC(=O)CCC(=O)O[C@@H]1[C@@H]2OP(=O)(O)OC[C@H]2O[C@H]1n1cnc2c(N)ncnc21)C(=O)O [IV]
binding to antibodies raised against these cyclic nucleotides [3]: bind strongly

C[75Se]c1ncnc2c1ncn2[C@@H]1O[C@@H]2COP(=O)(O)O[C@H]2[C@H]1O [III, 6methylselenopurineriboside-3',5'-cyclic monophosphate-^75 Se]
cyclic AMP causing as much displacement of tritiated cyclic AMP (binding protein; 9.6pmoles of Se analogue): 12.2 pmol | % 3H-cyclic AMP bound (binding protein; Se analogue 9.6 pmoles/50μl): 5.06% | Cyclic AMP equivalent (binding protein; Se analogue 9.6 pmoles/50μl): 12.2 pmoles/50μl | % 3H-cyclic AMP bound (binding protein; Se analogue 105 pmoles/50μl): 0.96% | Cyclic AMP equivalent (binding protein; Se analogue 105 pmoles/50μl): 69.7 pmoles/50μl | % 3H-cyclic AMP bound (binding protein; Se analogue 1,156 pmoles/50μl): 0.42% | Cyclic AMP equivalent (binding protein; Se analogue 1,156 pmoles/50μl): 161 pmoles/50μl | binding power compared with cyclic AMP (binding protein; at the concentration employed (9.6pmoles)): very similar binding powers | binding to natural binding protein extracted from bovine muscle [1]: shown to bind | displacement with 3',5'-cyclic AMP from natural binding protein [1]: capable of displacement

C[75Se]C[C@H](NC(=O)CCC(=O)O[C@@H]1[C@@H]2OP(=O)(O)OC[C@H]2O[C@H]1n1cnc2c(=O)[nH]c(N)nc21)C(=O)O [V]
binding to antibodies raised against these cyclic nucleotides [3]: bind strongly | Percentage of 75Se-labelled cyclic GMP bound ([4]; dose of cyclic GMP 0 picomoles): 24.5% | Percentage of 75Se-labelled cyclic GMP bound ([4]; dose of cyclic GMP 5 picomoles): 17.3% | Percentage of 75Se-labelled cyclic GMP bound ([4]; dose of cyclic GMP 10 picomoles): 16.7% | Percentage of 75Se-labelled cyclic GMP bound ([4]; dose of cyclic GMP 20 picomoles): 11.8% | Percentage of 75Se-labelled cyclic GMP bound ([4]; dose of cyclic GMP 40 picomoles): 8.3% | Percentage of 75Se-labelled cyclic GMP bound ([4]; dose of cyclic GMP 80 picomoles): 6.1%
